# A melting point compilation (Tetko et al.)
row,melting point [°C],SMILES
1,127 to 129,Cc1ccc(CNC(=O)CC#N)cc1
2,171 to 173,O=C(Nc1cccc(O)c1)c1ccccc1
3,86 to 88,CC(=O)N1CCN(c2ccccc2C=O)CC1
4,180 to 182,O=C(Cc1nc2ccccc2[nH]1)c1ccccc1
5,50 to 52,CC(C)c1ccc(-c2noc(CCl)n2)cc1
6,213 to 215,CC(C)(C)c1ccc(-c2ccc(C(=O)O)o2)cc1
7,59 to 61,CC(C)(Oc1cccc(Cl)c1)C(=O)O
8,240 to 242,N#CCCNS(=O)(=O)c1ccc(C(=O)O)cc1
9,94 to 96,CCOc1ccccc1OCC(=O)NN
10,92 to 94,Nc1ccccc1C(=O)NCCO
11,164 to 166,Cc1nc2cc(N)ccc2n1C
12,133 to 135,Cc1[nH]c2ccccc2c1C(=O)C(C)Cl (stereo not drawn)
13,164 to 166,Nc1cccc(-n2c(O)c(O)n(C3CC3)c2=O)c1
14,65 to 67,CC(C)(C)c1ccc(-c2nnc(CCl)o2)cc1
15,141 to 143,CCN(CC)C(C(N)=O)c1ccccc1 (stereo not drawn)
16,103 to 105,COc1ccc(OC)c(C(C)NC(=O)CCl)c1 (stereo not drawn)
17,249 to 251,O=C(O)c1ccc(-c2noc(C(F)(F)F)n2)cc1
18,103 to 105,CC(C)C(NC(=O)c1ccco1)C(=O)O (stereo not drawn)
19,57 to 59,COc1ccc(COc2cccc(F)c2)cc1N
20,114 to 116,O=C(O)CCCOc1ccc(Cl)cc1
21,83 to 85,Cc1ccc(C(=O)c2cccc(S(C)(=O)=O)c2)c(C)c1

row,melting point [°C],SMILES
1,209 to 211,COCC(C)NS(=O)(=O)c1ccc(Cl)c([N+](=O)[O-])c1 (stereo not drawn)
2,49 to 51,Cc1ccc(-n2cc(C)cn2)c(N)c1
3,104 to 106,Nc1ccccc1Oc1ncc(Cl)cc1Cl
4,95 to 97,O=C(CO)c1ccc(F)cc1F
5,86 to 88,Nc1nc(-c2ccc(OC(F)F)cc2OC(F)F)cs1
6,97 to 99,O=C(CCCl)N1CCN(c2ccccn2)CC1
7,93 to 95,CC(C)Oc1ccc(S(=O)(=O)Cl)c2ccccc12
8,172 to 174,NC(Cc1cccc2cccnc12)=NO
9,210 to 212,Nc1ccc(C(=O)N2CCCc3ccccc32)cc1
10,183 to 185,O=C(O)CC1=NN(c2ccc(Cl)nn2)C(=O)C1
11,156 to 158,O=C(O)c1ccc(SC2CC2)cc1
12,229 to 231,CC(=O)N1CCN(Cc2ccc(C(=O)O)cc2)CC1
13,76 to 78,Clc1ccc(NCc2cccnc2)c(Cl)c1
14,248 to 250,Nc1nnc(C(=O)NCc2ccccc2)[nH]1
15,173 to 175,C=CCOc1ccc(C(=O)O)cc1OC
16,153 to 155,CC(C)c1ccc(S(=O)(=O)N2CC(O)CC2C(=O)O)cc1 (stereo not drawn)
17,183 to 185,O=C(CCl)c1c[nH]c2ccccc12
18,76 to 78,Cc1cccc(OCCNc2ccc(F)cc2N)c1
19,133 to 135,O=C(O)c1coc(Br)c1
20,159 to 161,O=C(O)CSc1ccc(Cl)cc1[N+](=O)[O-]
21,144 to 146,COC(=O)c1cc2c(C)c(C)ccc2[nH]1

row,melting point [°C],SMILES
1,189 to 191,Cc1cc2ccn(C)c2c(=O)[nH]1
2,219 to 221,NC(CC(=O)O)c1cnn(-c2ccccc2)c1 (stereo not drawn)
3,110 to 112,CN(C(=O)CCl)C1(c2ccccc2Cl)CCCCC1=O (stereo not drawn)
4,92 to 94,Cc1cc(OC(C)C(=O)O)ccc1C(C)C (stereo not drawn)
5,180 to 184,O=C(O)Cc1cn2ccsc2n1
6,223 to 225,CCC1=C(C(=O)O)Cc2ccccc2O1
7,80 to 82,O=C(O)CNc1ccccc1[N+](=O)[O-]
8,218 to 221,O=C(O)CNC(=O)/C=C/c1ccco1
9,129 to 131,COc1ccc(CCC(=O)NN)cc1
10,157 to 159,COc1ccc2c(c1)NC(=O)CO2
11,87 to 89,Cc1ccc([N+](=O)[O-])c2cccnc12
12,315 to 317,O=C(O)c1ccc2nncn2c1
13,279 to 281,O=C(O)c1ccc(-n2ccnn2)cc1
14,269 to 271,Cc1ccc(C(N)C(=O)O)cc1 (stereo not drawn)
15,33 to 35,CC(C)(C)c1ccc(C(=O)N=C=S)cc1
16,120 to 122,Nc1ccc(NC(=O)c2ccco2)cc1C(F)(F)F
17,189 to 191,O=C(O)c1cccnc1Oc1ccc(F)cc1Br
18,175 to 177,O=C(O)c1ccc(Oc2ccc(Br)cc2)nc1
19,51 to 53,O=C(O)CCCOc1cccc(F)c1

# Further lines, the compound ahead of its results:
row,SMILES,melting point [°C]
1,Nc1nnc(Cc2ccc3ccccc3c2)o1,219 to 221
2,O=C1c2ccccc2C(=O)N1Cc1ccnc2ccnn12,274 to 276
3,Nc1ccc(S(=O)(=O)Nc2cccc(F)c2)cc1,168 to 170
4,O=C1OCCN1c1ccc(S(=O)(=O)Cl)cc1,168 to 170
5,O=C(O)CCc1n[nH]c(S)nc1=O,162 to 164
6,[N-]=[N+]=Nc1ccc(Cl)c(Cl)c1,32 to 34
7,CC(C)CNCC(O)c1ccc(F)cc1 (stereo not drawn),56 to 58
8,NC(=O)c1c(N)sc2c1CCCCC2,195 to 199
9,CCc1ccc(-c2csc(N)n2)s1,92 to 94
10,O=C(NC(C(=O)O)c1ccccc1)OCC1c2ccccc2-c2ccccc21 (stereo not drawn),170 to 172
11,C=CCN1C(=O)C(=O)N(CC(=O)O)C1=O,143 to 145
12,Cc1[nH]cnc1CO,233 to 235
13,NNC(=O)Cc1cn2ccsc2n1,97 to 101
14,CCOC(=O)CSc1nnc(-c2ccco2)o1,59 to 61
15,CN(C)C(=O)C1CCC(C(=O)O)CC1 (stereo not drawn),169 to 171
16,CC(C)S(N)(=O)=O,44 to 46
17,CC(C)(C)OC(=O)NC(C(N)=NO)C1CC1 (stereo not drawn),147 to 149
18,CC(=O)Cn1cnc(C)c1C,80 to 82
19,Cc1noc(C)c1S(=O)(=O)NC1(C(=O)O)CCCC1,176 to 178
20,Nc1ccccc1Oc1ccccc1N,61 to 64
21,O=S(=O)(Cl)c1ncn[nH]1,58 to 60

row,SMILES,melting point [°C]
1,CC1CCCC(O)(CN)C1 (stereo not drawn),59 to 61
2,O=C1CCCN1CO,79 to 81
3,O=C(O)CNC(=O)CC1CCCC1,98 to 100
4,C=CCn1c(S)nc2sc3c(c2c1=O)CCC(C)C3 (stereo not drawn),228 to 230
5,CCNC(=O)NC(=O)C(C)Cl (stereo not drawn),126 to 128
6,CCC(=O)C(N)=O,94 to 96
7,O=C(O)C1CCCN(c2nccs2)C1 (stereo not drawn),121 to 123
8,BrCc1cn(-c2ccccc2)nn1,111 to 113
9,COc1ccc(-c2nc(N)sc2-c2ccc(OC)cc2)cc1,207 to 209
10,Cc1cc(NC(=O)CCl)on1,106 to 108
11,O=C1CCS(=O)(=O)c2ccc(Br)cc21,146 to 148
12,NCc1ccc(-c2ccc3c(c2)CCO3)cc1,77 to 79
13,NCC(O)C1CC1 (stereo not drawn),34 to 36
14,CC(C)(C)OC(=O)NCCc1nnc2n1CCCC2,158 to 160
15,CCc1c(C)sc2[nH]c(COCC(=O)O)nc(=O)c12,193 to 195
16,Nc1cccc(S(=O)(=O)Nc2ccccc2F)c1,195 to 197
17,Cc1nc(N)nc(Cl)c1Br,189 to 191
18,Cc1nc2c(c(C)nn2C)c(C)c1CC(=O)O,245 to 247
19,CCN1C(=O)CNC1=O,100 to 102
20,Nc1ccc(-c2nc3ccccc3s2)cn1,187 to 189
21,OCc1cnc(N2CCOCC2)s1,101 to 103
